The test has as its target Autotaxin (Homo sapiens, UniProt Q13822). Kind of test: Quanta Red Assay: Measuring ATX activity using an enzyme coupled Quanta Red assay (Thermo Scientific Pierce Protein Research Products, Product #15159) was determined as follows. 8 μL human recombinant ATX (final concentration 0.8 μg/mL) in 1× Assay buffer containing 50 mM Tris-HCl (pH 8.0), 5 mM CaCl2 was added to an opaque black flat-bottom 384-well plate (Corning, #3575) containing 2 μL test compound in 40% DMSO (4% final DMSO concentration). 10 μL of Quanta Red, Horseradish peroxidase (HRP), Choline Oxidase (CO), Rac-1-Palmitoyl-glycero-3-phosphocholine solution (final concentration 1:250 for Quanta Red, 0.5units/ml HRP, 0.5units/ml CO, 15 μM Rac-1-Palmitoyl-glycero-3-phosphocholine) in 1× assay buffer (as described previously) was added to each well to start the reaction and the plate was incubated at room temperature for 2 hours. The reaction was stopped after 2 hours with a 20 μL addition of Quanta Red Stop solution (1:20 dilution in distilled water). The above-described mixture with DMSO alone was used as a positive control whereas that with DMSO alone without ATX was taken as a negative control. For each test compound, ten concentrations were measured covering a range of 6.1 nM to 120 μM to determine IC50 values. The top concentration was decreased to 1.2 μM when a test compound's IC50 value was evaluated in low nanomolar range. Fluorescence was determined in a BMG Labtech Pherastar plus plate reader (λ emission=540 nm, λ excitation=590 nm). Data were analysed using Excel fit software.
By IC50 is commonly meant the concentration needed to halve the response being measured. As to `O=C(Nc1cc(CCc2ccc(Cl)cc2)[nH]n1)C1CC(=O)N(c2ccc(CN3CCOCC3)cc2)C1` (stereo not drawn), the IC50 was determined as 5 nM.

`O=C(Nc1nnc(CCC2CCCC2)s1)C1CC(=O)N(c2ccc(CN3CCOCC3)cc2)C1` (stereo not drawn): the half-maximal inhibitory concentration (IC50) came to 3 nM.

On to `CN1CCN(Cc2ccc(N3C[C@H](NC(=O)c4nnc(CCc5ccc(Cl)cc5)s4)CC3=O)cc2)CC1`, for which the 50% inhibitory concentration (IC50) is 124 nM.

As for `O=C1CN(Cc2ccc(N3C[C@H](NC(=O)c4nnc(CCc5ccc(Cl)cc5)s4)CC3=O)cc2)CCN1`, the IC50 turned out to be 8 nM.

Regarding `CCCN(CC)Cc1ccc(N2CC(C(=O)Nc3nnc(CCc4ccc(Cl)cc4)s3)CC2=O)cc1` (stereo not drawn), the 50% inhibitory concentration (IC50) was 4 nM.

On to `CCCN(C)Cc1ccc(N2CC(C(=O)Nc3nnc(CCc4ccc(Cl)cc4)s3)CC2=O)cc1` (stereo not drawn), for which the half-maximal inhibitory concentration (IC50) stood at 3 nM.

As to `O=C(Nc1nnc(CCC2CCOCC2)s1)C1CC(=O)N(c2ccc(CN3CCOCC3)cc2)C1` (stereo not drawn), the IC50 came to 358 nM.

Consider `CCC(C)CCc1nnc(NC(=O)C2CC(=O)N(c3ccc(CN4CCOCC4)cc3)C2)s1` (stereo not drawn), for which the half-inhibitory concentration (IC50) came to 11 nM.

The values above are taken from ChEMBL document CHEMBL5725945, “Autotaxin inhibitors” (2018).
